{"source": "paper PMC3996911", "about": "(Molecular cell, 2014)", "key": {"[1]": {"target": "PPK (Escherichia coli, UniProt P0A7B1)", "sequence (P0A7B1 2-688)": "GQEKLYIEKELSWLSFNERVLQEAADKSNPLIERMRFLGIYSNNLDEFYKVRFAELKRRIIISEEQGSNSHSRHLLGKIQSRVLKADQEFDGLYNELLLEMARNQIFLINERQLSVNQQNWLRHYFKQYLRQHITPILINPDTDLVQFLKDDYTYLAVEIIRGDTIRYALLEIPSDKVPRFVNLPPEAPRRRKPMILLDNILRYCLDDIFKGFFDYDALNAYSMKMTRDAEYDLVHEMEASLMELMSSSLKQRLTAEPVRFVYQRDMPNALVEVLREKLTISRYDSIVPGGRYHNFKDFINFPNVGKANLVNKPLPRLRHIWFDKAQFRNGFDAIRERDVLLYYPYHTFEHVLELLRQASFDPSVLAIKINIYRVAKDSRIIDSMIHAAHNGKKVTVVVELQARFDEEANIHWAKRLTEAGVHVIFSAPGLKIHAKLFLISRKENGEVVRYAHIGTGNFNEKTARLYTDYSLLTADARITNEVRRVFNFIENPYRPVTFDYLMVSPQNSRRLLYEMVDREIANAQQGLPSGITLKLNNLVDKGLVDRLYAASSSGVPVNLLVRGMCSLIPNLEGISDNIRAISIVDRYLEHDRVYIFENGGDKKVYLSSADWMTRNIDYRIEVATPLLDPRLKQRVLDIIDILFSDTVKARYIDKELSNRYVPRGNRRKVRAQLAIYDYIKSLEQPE"}, "[2]": {"target": "T1, PPX (Escherichia coli, UniProt P0AFL6)", "T1 sequence (P0AFL6 2-513)": "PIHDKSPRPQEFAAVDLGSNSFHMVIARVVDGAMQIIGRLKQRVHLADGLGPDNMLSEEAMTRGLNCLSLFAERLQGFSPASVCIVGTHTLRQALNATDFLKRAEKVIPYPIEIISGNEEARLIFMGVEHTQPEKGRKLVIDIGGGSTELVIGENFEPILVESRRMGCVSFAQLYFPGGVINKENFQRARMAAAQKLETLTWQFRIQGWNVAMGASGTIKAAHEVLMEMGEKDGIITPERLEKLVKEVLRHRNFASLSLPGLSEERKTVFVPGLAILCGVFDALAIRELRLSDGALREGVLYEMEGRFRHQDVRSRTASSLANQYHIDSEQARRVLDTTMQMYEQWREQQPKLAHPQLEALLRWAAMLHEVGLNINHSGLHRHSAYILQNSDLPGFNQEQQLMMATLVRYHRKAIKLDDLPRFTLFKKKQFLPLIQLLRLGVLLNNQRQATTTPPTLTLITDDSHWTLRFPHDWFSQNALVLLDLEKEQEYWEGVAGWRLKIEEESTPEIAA", "assay": "specific activity after incubation with N-chlorotaurine", "assay_type": "biochemical", "settings": "covalent (oxidation of Cys169 and, to a lesser extent, Cys85)"}}}
{"smiles": "Nc1ncnc2c1ncn2[C@@H]1O[C@H](COP(=O)(O)OP(=O)(O)OP(=O)(O)O)[C@@H](O)[C@H]1O", "note": "[ATP]", "values": [{"measurement": "specific activity, forward reaction (polyP synthesis)", "setting": "[1]", "result": "Specific activity of PPK’s forward and reverse reactions (see Figure 1C)"}]}
{"smiles": "O=S(=O)(O)CCNCl", "note": "[N-chlorotaurine]", "values": [{"measurement": "specific activity after incubation with N-chlorotaurine", "setting": "[2]", "result": "Purified PPX proved to be highly sensitive to inactivation by N-chlorotaurine"}]}
